Source: patent US10829506B2, “Amino- or ammonium-containing sulfonic acid, phosphonic acid and carboxylic acid derivatives and their medical use” (GRI Bio, Inc., priority 2011, dated 2020)

How the values were obtained:
[1] = Body weight and toxic side-effects in the DTH study; type: in vivo, mice; conditions: oral 1 mg/kg once daily
Method: Three hours after the last dose, the antigen challenge was performed on the ears as described above. Dexamethasone was given at 1 mg/kg orally by gavage 3 h before sensitization and once daily with the final dose given 3 h prior to antigen challenge (a total of 7 administrations). All administrations were given in a volume of 10 mL/kg.
Such high dosing (overdose) is, however, not suitable for treatment of humans due to severe side effects of the corticosteroid and was only used to validate the responsiveness of the model.

BALB/cJW mice = assay: Delayed-type hypersensitivity (DTH) reaction, mouse ear swelling; type: in vivo; conditions: oral; 1a 100 mg/kg (loading dose, then maintenance doses), dexamethasone 1.0 mg/kg once daily; 24 h after ovalbumin challenge
Method: The anti-inflammatory and anti-allergic effects of compound 1a was assessed in a mouse model of skin delayed-type hypersensitivity (DTH) reactions and compared to a vehicle control and to the reference drug dexamethasone. DTH reactions are antigen-specific cell-mediated immune responses, driven primarily by T helper type 1 (Th1) cells, similar to the tuberculin immunization response. The immune reaction induced by an ovalbumin challenge to animals previously sensitized with ovalbumin in Complete Freund's Adjuvant, is characterized by swelling (edema) at the site of challenge, e.g. the mouse ear. Dexamethasone, an anti-inflammatory steroid, reduces cell-mediated immune responses and was employed to validate the responsiveness of the assay to pharmacological treatment.
Female BALB/cJW mice were bred at the University of Lodz, Lodz, Poland and housed in groups of 8 in makrolon cages with a 12 h light-dark cycle. Mice were given free access to food (Agropol S. j., Motycz, Poland) and water.
Group size was n=8 mice unless otherwise stated. Test compound was freshly prepared before administration.
Sensitization: The protein antigen, ovalbumin, was reconstituted in PBS at 4 mg/ml. […] The emulsion was tested by putting a drop of emulsion onto PBS; if the emulsion remained as a light droplet on the PBS, the emulsion was deemed ready. […]
Challenge: On the sixth day after sensitization, DTH was elicited by challenging animals subcutaneously (gauge 30 needle, B. Braun Melsungen, Melsungen, Germany) in the left ears with 10 μL of a 1% suspension of heat-aggregated ovalbumin (HOVA) (100 μg ovalbumin per mouse). […] Ear thickness was measured with a precise spring-loaded caliper (Art. No, 7309, Mltutoyo, Kawasaki, Japan) before challenge, and 24 h after challenge. […]
To account for individual variability, the increase in right ear thickness, before and 24 h after administration of PBS, was subtracted from the HOVA-induced increase in left ear thickness. The increase in ear thickness was calculated by the difference between ear thickness before and 24 h after antigen challenge. […]

RBL-2H3 cells [2] = assay: Maximum tolerated concentration (cytotoxicity by lactate dehydrogenase release); type: cell-based, rat
Source text: A commercially available cytotoxicity test was used (Promega Cytotox-One cat. #67891).
The safety index (SI) of a test compound Is the ratio between the maximum tolerated concentration and the 1C50 and is used as a measure of the relative safety of the test compound.

RBL-2H3 cells [3] = assay: Inhibition of mast cell degranulation (β-hexosaminidase release); type: cell-based, rat; conditions: RBL-2H3 cells sensitized with anti-DNP IgE, triggered with DNP-HSA, 1 h preincubation
Source text: Mast cells are key effector cells involved in allergic and inflammatory diseases, and the Rat Basophilic Leukemia clone 2H3 (RBL-2H3) cell line is a commonly used model of allergen dependent immune modulator release (degranulation) in mast cells. On their surface, they express the high affinity receptor for IgE (FcεRI). Upon binding of antigen-specific IgE to the receptor, cells become sensitized to the IgE specific antigen (allergen). When IgE-sensitized cells then encounter multivalent antigen, the antigen clusters IgE-FcεRI complexes and initiates a signal transduction cascade that leads to degranulation, that is, the release of inflammatory mediators, such as cytokines, eicosanoids, histamine and enzymes. The assay can be used as a screening method to identify immune-modulating compounds, in particular compounds useful in the medical management of allergic and inflammatory diseases and asthma, β-hexosaminidase was previously shown to be released with the same kinetics as histamine (Schwartz et al., J Immunology; 123:1445-1450 (1979)), thus offering a simple means to monitor degranulation. The RBL-2H3 cell line has been successfully used to identify compounds with anti-allergic activity (Choo et al. Planta Med., 69:518-522 (2003)).
Cell Culture: RBL-2H3 cells obtained from the German Collection of Microorganisms and Cell Cultures (ACC312) (Braunschweig, Germany) were maintained in 70% Minimum Essential Medium with Earle's Salts, 20% RPMI 1640 Medium, 10% FBS and 2 mM l-glutamine in 95% air/5% CO2 at 37° C. and routinely checked for mycoplasma contamination. Cells were passaged every 3-4 days; after washing cells once with 35 ml PBS cells were incubated 8 min with 5 ml 0.05% Trypsin-EDTA solution at 37° C. Cells were removed from the incubator, 15 ml culture medium was added and cells were resuspended by repeated pipetting.
Cell seeding: cells were harvested with Trypsin-EDTA as described and 50-100 μl cell suspension seeded Into Costar CellBind 24 well cluster plates (no. 3337). Plates were kept for 30 min at RT under the sterile hood before being transferred to the incubator. Cells were used within one or two days after seeding.
For sensitization, cells for immediate use were sensitized 6-12 h after plating; cells to be used the following day were sensitized 26-38 h after plating. Culture plates were removed from the incubator and checked for cell growth and contamination. The medium was discarded and cells were sensitized with anti-DNP IgE (0.4 μg/ml) in 0.4 ml culture medium overnight. Following overnight sensitization, cells were washed with 0.8 ml pre-warmed TyB and 0.38 ml test compound or vehicle control (supplemented or not with 1% FBS) were added to duplicate wells. Samples were adjusted to contain 1% vehicle for test compounds dissolved in organic solvents. Cells were incubated for 1 h at 37° C. At the end of the incubation period, cells were routinely stimulated with 20 μl DNP-HSA (2 μg/ml; final concentration 0.1 μg/ml) diluted in TyB and cells were incubated for 15 min at 37° C. Alternatively, cells were stimulated with 20 μl […] (final concentration 0.25 μM) or 20 nM […] (final concentration 0.25 μM), both in the absence or presence of 20 nM PMA (final concentration).
Plates were removed from the incubator and immediately centrifuged at 4° C. for 5 min at 250×g and transferred to an ice bath. Aliquots of supernatants, 25 μl, were transferred to 96-well plates. Remaining supernatant was aspirated from control wells and cells were lysed in […] lysis buffer for 5 min at RT on an orbital shaker at 450 rpm under non-sterile conditions. After lysis, 25 μl aliquots of lysates were transferred to 96-well plates.
MUG substrate solution, 100 μl, were added to supernatant and lysate samples and plates were incubated 30 min at 37° C. The reaction was terminated by addition of 150 μl stop solution. Fluorescence was measured at 365 nm excitation and 440 nm emission wavelengths. […]

phospho-Akt Ser473 = assay: Inhibition of Akt phosphorylation on Ser473 in IgE sensitized, antigen stimulated RBL-2H3 cells; type: cell-based, rat; conditions: normalized to total Akt, IgE and antigen for 15 min
Source text: The mast cell degranulation assay using the RBL-2H3 cell line (see Example 27) was also used to determine the status of the PI3K/Akt axis. Activation of PI3K leads to production of PIP3 on the cytosolic side of the lipid bilayer. Akt is recruited to the PIP3 domain and subsequently activated by phosphorylation on residues Ser473 and Thr308. (Franke et al., Cell 81:727-736, (1995)). Once recruited to the membrane, it is phosphorylated and activated by other kinases (Hemmings, Science 275:628-630 (1997); Hemmings. Science 276:534 (1997); Downward, Science 279:673-674 (1998); Alessi et al., EMBO J. 15:6541-6551 (1996)). Western blotting of the phosphorylated Ser473 residue on Akt (phospho-Akt Ser473) is widely used to assess the level of activation of the PI3K/Akt axis.
All buffers and solutions used for the phosphor-Akt Ser473 assay were from Meso Scale Discovery. Tris Lysis Buffer consisted of 150 mM NaCl, 20 mM Tris, pH 7.5, 1 mM EDTA, 1 mM EGTA and 1% Triton-X-100. Complete Tris Lysis Buffer was prepared prior to use by addition of protease inhibitor, phosphatase inhibitors and PMSF. The 10x Tris Wash Buffer consisted of 500 mM Tris, pH 7.5, 1.5 M NaCl and 0.2% Tween-20. Blocker A was made up of bovine serum albumin in Tris Wash Buffer. Read Buffer T was used according to manufacturer's instructions. The Whole Cell Lysate Kits used were phospho-Akt Ser473 (K11100D. Lot K0011749) and total ERK½ (K11107D, Lot K0011698) as a loading control.
Protein assay: protein concentration was determined using the BCA (bicinchoninic acid) Protein Assay kit according to the manufacturer's instructions, Briefly, duplicate 10 μl samples of bovine serum albumin (BSA) standards, blank and lysates were incubated in a 96-well plate with 0.2 ml working reagent for 30 min at 37° C. Plates cooled to room temperature for 5 min and absorbance at 562 nm measured in a multi-mode plate reader. Protein concentrations were calculated using FlexStation 3 software (SoftMax Pro version 5.3). Protein concentration of lysates was determined from a standard curve (BSA) using a linear curve fit.
Phosphoprotein assay: protein phosphorylation was determined using the MULTI-SPOT® Assay System (Meso Scale Discovery), providing simultaneous detection of phosphorylated and total proteins. Briefly, capture antibodies against phosphorylated and total protein are patterned on distinct spots in the same well of 96-well plates. Sandwich immunoassay and electrochemiluminescence detection technology are combined to measure intensity of the emitted light from phosphorylated and total protein spots. For analysis of phosphor-Akt Ser473 was performed according to the manufacturer's instructions. The optimal amount of protein was determined at 5 μg lysate per well for ERK½ and 10 μg/well for phospho-Akt Ser473. Plates were blocked with 25 μl/well Blocker A for 1 h at room temperature with gentle agitation. During this time, the lysates were thawed and diluted to the desired protein concentration in complete Tris Lysis Buffer. Plates were washed four times in Tris Wash Buffer and 25 μl lysate per well added. Plates were incubated for 1-3 h at room temperature with agitation according to the manufacturer's recommendations. Plates were washed four times with Tris Wash Buffer, followed by addition of 25 μl/well of the respective detection antibody and incubation for 1 h at room temperature, with agitation. After a final four washes with Tris Wash Buffer 150 μl/well, Read Buffer T was added, and plates read on a SECTOR Imager 6000 plate reader.
The mean background signal from each plate was subtracted from averaged raw data. The amount of total protein phosphorylaled was expressed as % phosphoprotein according to the manufacturer's (Meso Scale Discovery) Instructions.
Levels of phospho-Akt Ser473 were determined in IgE sensitized and antigen stimulated cells after treatment without (positive control) or with 1, 5 and 25 μM test compound and normalized to levels of total Akt.

| SMILES | Loss in body weight [1] | Inhibition of mouse ear swelling (DTH response) (BALB/cJW mice) | MTC (maximum tolerated concentration) (RBL-2H3 cells [2]; highest concentration not causing cytotoxicity, LDH release) | SI (safety index, ratio MTC/IC50) (RBL-2H3 cells [2]; ratio between maximum tolerated concentration and IC50) | IC50 (RBL-2H3 cells [3]) | Level of phospho-Akt Ser473 (phospho-Akt Ser473; 1 μM) | Level of phospho-Akt Ser473 (phospho-Akt Ser473; 5 μM) | Level of phospho-Akt Ser473 (phospho-Akt Ser473; 25 μM) |
| --- | --- | --- | --- | --- | --- | --- | --- | --- |
| C[C@@H]1C[C@H]2[C@@H]3CCC4=CC(=O)C=C[C@]4(C)[C@@]3(F)[C@@H](O)C[C@]2(C)[C@@]1(O)C(=O)CO [Dexamethasone, reference compound] | 4.4% | 49% |  |  |  |  |  |  |
| CCCCCCCCCCCCCC[N+](C)(C)CCCP(=O)([O-])O [Compound 1c, 3-N,N-Dimethylmyristylammoniopropylphosphonic Acid] |  |  | 200 µM | 71.4 | 2800 nM | 83.2 ± 17.3 % positive control | 11.7 ± 7.7 % positive control | 2.2 ± 1.4 % positive control |
